# Biological target: MtOMPDC (wildtype OMPDC from Methanothermobacter thermautotrophicus) (Methanothermobacter thermautotrophicus, UniProt O26232)
# Experiment: OMP decarboxylation followed at […] nm
# Type: biochemical
# MtOMPDC (wildtype OMPDC from Methanothermobacter thermautotrophicus), sequence (O26232 whole entry): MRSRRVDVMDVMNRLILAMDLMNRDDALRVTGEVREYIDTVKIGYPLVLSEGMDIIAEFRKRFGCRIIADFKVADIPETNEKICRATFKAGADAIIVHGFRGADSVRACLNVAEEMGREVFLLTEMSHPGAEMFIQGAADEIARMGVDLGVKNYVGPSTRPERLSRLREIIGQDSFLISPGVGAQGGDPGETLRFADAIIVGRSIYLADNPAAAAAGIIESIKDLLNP
compound,measurement,value
"O=c1ccn([C@@H]2O[C@H](COP(=O)(O)O)[C@@H](O)[C@H]2O)c(=O)[nH]1 [UMP, uridine 5′-monophosphate]",Ki,~100 µM

# Source: article PMC2754381 (Biochemistry, 2009)
